Reference: PubChem BioAssay (NCI)
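96-well plates; 48 h exposure; 5 concentrations. Endpoints by linear interpolation between flanking doses. Not reached: highest tested concentration assigned. GI50 marks 50% less growth. TGI: concentration producing complete growth inhibition.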

Assays:
Experiment in all cases: inhibition of tumour cell growth, NCI panel, 48 h
DLD-1 colon = test system: DLD-1 colon
DMS 114 small cell lung = test system: DMS 114 small cell lung
DMS 273 small cell lung = test system: DMS 273 small cell lung
HOP-18 NSCLC = test system: HOP-18 NSCLC
KM20L2 colon = test system: KM20L2 colon
M19-MEL melanoma = test system: M19-MEL melanoma
RXF-631 renal = test system: RXF-631 renal
XF 498 CNS = test system: XF 498 CNS
MDA-N = test system: MDA-N

| Structure (SMILES) | TGI (DLD-1 colon) | TGI (DMS 114 small cell lung) | TGI (DMS 273 small cell lung) | TGI (HOP-18 NSCLC) | TGI (KM20L2 colon) | TGI (M19-MEL melanoma) | TGI (RXF-631 renal) | TGI (XF 498 CNS) | TGI (MDA-N) | other results |
| --- | --- | --- | --- | --- | --- | --- | --- | --- | --- | --- |
| O=S(O)CCCCSSCc1ccccc1CSSCCCCS(=O)O | > 100 µM | 35.2 µM | > 100 µM | > 100 µM | > 100 µM | 21.2 µM | > 100 µM | 25.5 µM | – | – |
| O=C(/C=C/c1ccccc1)/C=C/c1ccccc1 | 32.5 µM | 52.9 µM | > 100 µM | 92.8 µM | 52.5 µM | 50.2 µM | > 100 µM | – | – | – |
| CC(C)c1ccccc1S(=O)c1ccccc1C(C)(C)O (centres undefined) | – | – | – | – | – | – | – | – | > 100 µM | – |
| COc1cc2c(cc1OC)C13CCN4CC5=CCOC6CC(=O)N2C1C6C5CC43O (centres undefined) | – | – | – | – | – | – | – | – | > 100 µM | – |
| CCCCCCCCCc1cc(=O)c2c(O)cccc2o1 | > 100 µM | > 100 µM | > 100 µM | > 100 µM | – | > 10 µM | > 100 µM | > 100 µM | – | – |
| O=C(O)c1c(-c2nccc3ccccc23)[nH]c(-c2ccccc2)c1S(=O)(=O)O | – | – | – | – | – | – | – | – | > 100 µM | – |
| O=C(O)c1cc(O)c2c(c1)C(C1c3cc(C(=O)O)cc(O)c3C(=O)c3c(OC4OC(CO)C(O)C(O)C4O)cccc31)c1cccc(OC3OC(CO)C(O)C(O)C3O)c1C2=O (centres undefined) | – | – | – | – | – | – | – | – | > 100 µM | GI50 (MDA-N): > 100 µM |
| CCOC(=O)[C@H](CCCNC(=O)OC(C)(C)C)NCc1ccc(OC)c(OC)c1 | > 100 µM | > 100 µM | > 100 µM | > 100 µM | > 100 µM | > 100 µM | > 100 µM | > 100 µM | – | – |
| O=C(O)c1cccc(OCCO)c1 | – | – | – | – | – | – | – | – | > 100 µM | – |
| O=C1CSC(Cc2nc3ccccc3[nH]2)=N1 | 49 µM | > 59.2 µM | 35.4 µM | 65.6 µM | 33.3 µM | > 59 µM | – | 39.9 µM | – | – |
| N#CC(C(=O)/C(=N/Nc1nc(=S)[nH]n1N)C(C#N)c1ccccc1)c1ccccc1 (centres undefined) | > 100 µM | > 100 µM | > 100 µM | > 100 µM | > 100 µM | > 100 µM | > 100 µM | > 100 µM | – | – |
| CCOC(=O)C1N(S(=O)(=O)c2ccc(C)cc2)CCC12C(c1ccc(OC)cc1)NC1CCCCC12 (centres undefined) | > 100 µM | > 100 µM | > 100 µM | – | > 100 µM | > 100 µM | > 100 µM | – | – | – |
| O=C(CCC(=O)Nc1cccc(Cl)c1)CC(=O)c1ccc(Cl)cc1 | – | – | > 100 µM | – | > 100 µM | – | > 100 µM | > 100 µM | – | – |
| O=C(Nc1ccc([N+](=O)[O-])cc1)C1C(=O)C(=O)N(c2ccc([N+](=O)[O-])cc2)C1=O (centres undefined) | > 100 µM | 35.8 µM | > 100 µM | > 100 µM | > 100 µM | – | > 100 µM | – | – | – |
| N#CC(/C(=N/NC(=O)C(=O)NN)C(=O)NC12CC3CC(CC(C3)C1)C2)c1ccccc1 (centres undefined) | > 100 µM | > 100 µM | > 100 µM | > 100 µM | > 100 µM | > 100 µM | > 100 µM | – | – | – |
| Nc1nc(Cl)cc(NCCO)n1 | – | – | – | – | – | – | – | – | > 100 µM | – |
| COC(=O)/C=C/C1C(C(=O)OC)C2(C(=O)OC)CCC1(C(=O)OC)N2 (centres undefined) | > 100 µM | – | > 100 µM | > 100 µM | > 100 µM | > 100 µM | > 100 µM | > 100 µM | – | – |

| Structure (SMILES) | TGI (DLD-1 colon) | TGI (DMS 114 small cell lung) | TGI (DMS 273 small cell lung) | TGI (HOP-18 NSCLC) | TGI (KM20L2 colon) | TGI (M19-MEL melanoma) | TGI (RXF-631 renal) | TGI (XF 498 CNS) | TGI (MDA-N) | other results |
| --- | --- | --- | --- | --- | --- | --- | --- | --- | --- | --- |
| NC(N)=N/N=C/c1cc(Cl)cc(Cl)c1O | – | – | – | – | – | – | – | – | > 100 µM | – |
| O/N=C\c1c(O)ccc2ccccc12 | – | – | – | – | – | – | – | – | > 100 µM | – |
| O=C(CN1CCCCC1)N1CCc2c([nH]c3ccccc23)C1c1cccnc1 (centres undefined) | > 100 µM | > 100 µM | > 100 µM | > 100 µM | > 100 µM | > 100 µM | > 100 µM | > 100 µM | – | – |
| CCCS(=O)(=O)Nc1ccc(Nc2c3ccccc3nc3ccccc23)c(OC)c1 | – | – | – | – | – | – | – | – | 20.2 µM | – |
| O=C(O)c1ccccc1-c1ccccc1C(=O)Nc1ccc2c(c1)Cc1cc(F)ccc1-2 | – | – | – | – | – | – | – | – | 75.5 µM | – |
| COC(=O)C12C3C4C5(C(=O)OC)C(C1C35C(=O)N(C(C)C)C(C)C)C42C(=O)N(C(C)C)C(C)C (centres undefined) | > 38.4 µM | > 50 µM | > 50 µM | > 50 µM | > 50 µM | > 50 µM | – | – | – | – |
| O=C(CCC/C(CC(=O)c1ccc(Br)cc1)=N\O)Nc1ccccc1 | > 100 µM | > 100 µM | – | > 100 µM | > 100 µM | > 100 µM | – | > 100 µM | – | – |
| Cc1cc(C)n(CCNCCn2nc(C)cc2C)n1 | > 100 µM | > 100 µM | > 100 µM | – | > 100 µM | > 100 µM | – | > 1 µM | – | – |
| N#CC1Nc2ccccc2[C@@H](O)C1O (some centres undefined) | – | – | – | – | – | – | – | – | > 100 µM | – |
| CCOC(=O)CCc1c(C)c2c(OC(C)=O)cc(OC(C)=O)cc2oc1=O | > 100 µM | 70.8 µM | > 100 µM | > 100 µM | > 100 µM | > 100 µM | – | – | – | – |
| CC1=C(C(=O)Nc2c(C)cccc2C)C(c2ccccc2Cl)C(C(=O)Nc2c(C)cccc2C)=C(C)N1 | > 100 µM | > 100 µM | > 100 µM | – | > 100 µM | > 100 µM | – | > 100 µM | – | – |
| N#C/C(=C\c1ccc(O)c(O)c1)C(N)=O | > 100 µM | > 100 µM | > 100 µM | – | > 100 µM | > 100 µM | > 100 µM | – | – | – |
| CC(=O)OCC1OC([S-])C(OC(C)=O)C(OC(C)=O)C1OC(C)=O.CC[PH+](CC)CC.CC[PH+](CC)CC.[Au].[Au] (centres undefined) | 0.49 µM | – | 2.11 µM | 0.694 µM | 2.2 µM | 0.806 µM | – | 0.449 µM | – | GI50 (DLD-1 colon): 0.174 µM; GI50 (DMS 273 small cell lung): 0.453 µM; GI50 (HOP-18 NSCLC): 0.253 µM; GI50 (KM20L2 colon): 0.792 µM; GI50 (XF 498 CNS): 0.181 µM |
| NC1CCCC[C@H]1N.N[C@@H]1CCCC[C@@H]1N.O=C(P(=O)([O-])[O-])P(=O)([O-])[O-].[Pt+4].[Pt+4] | > 100 µM | – | > 100 µM | > 100 µM | > 100 µM | > 100 µM | – | – | – | GI50 (DLD-1 colon): > 100 µM; GI50 (DMS 273 small cell lung): 32.3 µM; GI50 (HOP-18 NSCLC): 59.6 µM; GI50 (KM20L2 colon): > 100 µM; GI50 (M19-MEL melanoma): 73 µM |
| CC(C)(C)N1CC2(CCCCC2)C1=O | > 100 µM | > 100 µM | > 100 µM | > 100 µM | > 100 µM | > 100 µM | – | – | – | – |
| COc1ccccc1/C=C/c1cnccn1 | – | – | – | – | – | – | – | – | > 10 µM | – |
